Patent publication US20250092360A1, “METHODS AND COMPOSITIONS FOR GENERATING SOMATOSTATIN+ INTERNEURONS FROM HUMAN FOREBRAIN NEURAL PROGENITOR CELLS” (Trailhead Biosystems Inc., priority 2023, published 2025)
Values joined by “and” are separate entries in the source; they are usually repeats but may differ in a detail not shown here. Identical values can stand only once. “Also recorded” adds a separate entry of the source.

Columns and labels:
[1] = test system: forebrain-committed neural progenitor cells; assay: HD-DoE stage 5, 8-factor experiment (JQ1, Indolactam-V ...): Somatostatin expression; assay type: cell-based, human; settings: for impact on expression of Somatostatin: FIG. 21/22, in words; for factor contribution, expression of Somatostatin: positive, 8-factor experiment of FIG. 21
Description: To further guide the differentiation of forebrain-committed neural progenitor cells to somatostatin interneuron cells at stage 5, HD-DoE experiments were performed for 3 days after termination of stage 4 treatment. At this time, we focused on maximum expression of SST that was expressed in Somatostatin (+) interneurons and minimum expression of Parvalbumin that is another type of interneurons. This 8-factor experiment included JQ1, (−)-Indolactam-V, Oleic acid, BDNF, IGF-1, 2-phospho-L-Ascorbic acid, Albumax, MK2206. When the model was maximized for expression of Somatostatin, six effectors were identified that could increase its expression levels, including (−)-Indolactam-V, Oleic acid, BDNF, 2-phospho-L-ascorbic acid, Albumax, and MK2206, as shown in FIG. 21. Using dynamic profile analysis, the results of which are shown in FIG. 22, the model was modified to achieve the maximum expression level of Somatostatin and therefore (−)-Indolactam-V, BDNF, and 2-phospho-L-ascorbic acid were included while JQ-1, Oleic acid, Albumax and MK2206 were excluded. Considering the model at different optimization settings for maximum differentiation of cells toward ventral forebrain, the recipe for stage 5 of differentiation included (−)-Indolactam-V, BDNF, IGF-1, and 2-phospho-L-ascorbic acid from this HD-Doe experiment.

[2] = test system: forebrain-committed neural progenitor cells; assay: Factor criticality analysis, stage 5 recipe; assay type: cell-based, human; settings: for contribution to the expression of SST: stage 5, experiment of FIG. 28, in words; for effect on PVALB expression / effect on Somatostatin expression: stage 5, experiment of FIG. 30, in words
Description: To assess the impact of elimination of each validated factor, dynamic profile analysis was again used to compare the expression levels of genes of interest in the absence of each finalized factor while the others were present in the media.
In the stage 5 recipe, each of seven finalized factors was removed while the other six factors remained present in the media and the expression levels of SST and PVALB were assessed compared to the presence of all seven factors. […] Thus, BDNF, (−)-Indolactam-V, and 2-phosph-L-Ascorbic Acid were included in the stage 5 recipe. […] Thus, they were excluded from the recipe. […] Therefore, these effectors were included in the stage 5 recipe for SST maturation.

[3] = test system: forebrain-committed neural progenitor cells; assay: HD-DoE stage 5, 12-factor experiment (96 combinatorial media): Somatostatin expression; assay type: cell-based, human; settings: for impact on expression of Somatostatin: FIG. 26 dynamic profile, in words; for factor contribution, expression of Somatostatin: positive, 12-factor experiment of FIG. 25
Description: In another HD-DoE experiment, the results of which are shown in FIG. 25, cells were differentiated in 96 different combinatorial media made of 12 factors. These cells were treated with stage 1 to stage 4 medium for a total of 12 days prior to the experiment. […] In this model, we focused on maximum expression of Somatostatin gene expressed in somatostatin (+) interneurons. When the model was optimized for maximum expression of Somatostatin, BDNF, 2-phosph-L-Ascorbic Acid, O-LPA, N2 and Prostratin had the highest factor contributions, 1.75, 10.6, 2.7, 9.2 and 6.4 respectively. […]

[4] = test system: forebrain-committed neural stem cells; assay: HD-DoE stage 2, 12-factor experiment: NKX2-1 expression; assay type: cell-based, human; settings: for impact on expression of NKX2-1: model / dynamic profile, in words
Description: To further guide the differentiation of forebrain-committed neural stem cells to ventral forebrain neural stem cells at stage 2, a HD-DoE experiment was performed for 3 days after termination of stage 1 treatment. […] This 12-factor experiment included LDN193189, BMP7, PD0325901, MK2206, A8301, XAV939, CHIR99021, Purmorphamine, SANT-1, AGN193109, TTNPB and GSI-XX. […]

[5] = test system: human pluripotent stem cells; assay: HD-DoE stage 1, first 12-factor experiment: gene expression (qPCR) after 3-day treatment; assay type: cell-based
Source text: This example utilizes a method of High-Dimensional Design of Experiments (HD-DoE), as previously described in Bukys et al. (2020) […] 23:101346. The method employs computerized design geometries to simultaneously test multiple process inputs and offers mathematical modeling of a deep effector/response space. The method allows for finding combinatorial signaling inputs that control a complex process, such as during cell differentiation. It allows testing of multiple plausible critical process parameters, as such parameters impact output responses, such as gene expression. Because gene expression provides hallmark features of the phenotype of, for example, a human cell, the method can be applied to identify, and understand, which signaling pathways control cell fate. In the current example, the HD-DOE method was applied with the intent to find conditions for induction of […] neural progenitor-expressed genes, directly from the pluripotent stem cell state. To develop the recipe for each stage, the impact of agonists and antagonists of multiple signaling pathways (herein called effectors) on the expression of two sets of 53 pre-selected genes, after a 3-day treatment, has been tested and modeled. These effectors are small molecules or proteins that are commonly used during stepwise differentiation of stem cells to specific fates. Choice of the effectors were based on current literature on neural induction in forebrain region of developing brain and differentiation of stem cells to neural progenitors. To test the effectors, experiments with at least 8 factors were designed that can assess the response of cells to 48 or more different combinations of effectors in a range of concentrations. To analyze the models, we focused on expression of genes involved in development and patterning of the anterior neuroectoderm and forebrain including OTX2 (Hoch et al. (2015) Cell Reports 12:482-494), SIX3 (Lagutin et al. (2003) Genes & Development 17:368-379) and FEZF2 (Zhang et al. (2014) Development 141:4794-[…]). At later stages we focused on dorsoventral patterning of telencephalon and gene expressed in ventral forebrain including NKX2-1 and absence of PAX6 which is a dorsal forebrain marker (Stoykova et al. (2000) J. Neurosci. 20:8042-8050). The impact of each effector on gene expression level is defined by a parameter called factor contribution that is calculated for each effector during the modeling. To identify the recipe for stage 1 of differentiation, 96 different combinations of effectors generated using Design-of-Experiments compression through D-optimality were robotically prepared. The effector combinations were prepared in a basal media and were subsequently added to the cells, which were then allowed to differentiate. Three days later RNA extraction was performed, and gene expression was obtained using quantitative PCR analysis. The data were normalized and modeled using partial least squares regression analysis to the effector design, resulting in the generation of gene-specific models, which after model tuning for maximal Q2 predictive power, provided explanation of the effectors ability to control the expression of individual genes, combinatorically, and individually. Solutions within the tested space could then be explored to address desirability. Optimizing for maximal expression of SIX3 at 3300 and FEZF2 1355 expression values led to robust solutions. This model was derived from testing 12 effectors including AGN193109, LDN193189, CHIR99021, XAV939, IGF2, Purmorphamine, 4-oxo-RA, TTNPB, SR11237, FGF8, PD0325901 and […]. […] The model was also optimized for maximum expression of FEZF2 separately at 3576 expression value to find any additional factors that can boost expression of forebrain genes. […] To find the set of factors that have the potential to optimize all 3 genes in this experiment, a new assessment was done through dynamic profile analysis with focus on maximal expression of OTX2, FEZF2 and SIX3.

[6] = test system: forebrain-committed neural progenitor cells; assay: HD-DoE stage 5, 8-factor experiment (GDNF, BDNF, NT-3 ...): Somatostatin expression; assay type: cell-based, human
Description: To investigate the effects of other factors on differentiation of forebrain-committed neural progenitor cells to Somatostatin interneuron cells, an additional HD-DoE experiment was performed for 3 days on cells that were treated with stage 1 to stage 4 medium for a total of 12 days prior to the new experiment. This experiment, the results of which are shown in FIG. 23, included eight effectors, GDNF, BDNF, NT-3, ß-NGF, Linoleic acid, 5-Cholesten-3β, LIF and TGF-β3. In this model, we focused on maximum expression of Somatostatin gene expressed in Somatostatin (+) interneurons (Urban-Ciecko and Barth (2016) Nature Reviews Neurosci. 17:401-409). When the model was optimized for maximum expression of Somatostatin, BDNF, NT-3, beta-NGF and Linoleic acid had the highest factor contributions, 25.7, 2, 19.9, 23.5, respectively.
Therefore, the latter were excluded in the recipe.

Q: How did the “impact on expression of Somatostatin” value [1] turn out when O=C1O[C@H]([C@@H](O)CO)C(O)=C1OP(=O)(O)O [2-phospho-L-ascorbic acid] was run?
A: The value was “increase”.

Q: And the “impact on expression of Somatostatin” value ([1]; listed as 2-phospho-L-Ascorbic acid)?
A: Its value is “positive impact”.

Q: And the “factor contribution, expression of Somatostatin” value [1]?
A: The value was 4.

Q: And the “contribution to the expression of SST” value [2]?
A: Its value is “positive contributions”.

Q: What about the “effect on PVALB expression” value [2] of the same molecule?
A: Its value is “not to PVALB expression”.

Q: And the “effect on Somatostatin expression” value [2]?
A: Its value is “contribute”.

Q: And the “impact on expression of Somatostatin” value ([3]; listed as 2-phosph-L-Ascorbic Acid)?
A: Its value is “significant positive effect; also recorded: positive impact”.

Q: And the “factor contribution, expression of Somatostatin” value [3]?
A: The value was 10.6.

Q: Which “impact on expression of Somatostatin” value [3] does the source give for Cc1cc(SCc2sc(-c3ccc(C(F)(F)F)c(F)c3)nc2C)ccc1OCC(=O)O [GW0742] here?
A: Its value is “significant negative impact”.

Q: Which “factor contribution, expression of Somatostatin” value [3] does the source give for CCCCCCCC/C=C\CCCCCCCC(=O)OC[C@@H](O)COP(=O)(O)O [O-LPA] here?
A: The value was 2.7.

Q: CC(=O)O[C@@]12C[C@@H](C)[C@@]3(O)[C@@H](C=C(CO)C[C@]4(O)C(=O)C(C)=C[C@@H]34)[C@@H]1C2(C)C [Prostratin] was tested. Which “effect on PVALB expression” value [2] did it give?
A: Its value is “not to PVALB expression”.

Q: What about the “effect on Somatostatin expression” value [2] of the same molecule?
A: Its value is “contribute”.

Q: And the “impact on expression of Somatostatin” value [3]?
A: The value was “significant positive effect; also recorded: positive impact”.

Q: And the “factor contribution, expression of Somatostatin” value [3]?
A: The value was 6.4.

Q: How did the “impact on expression of NKX2-1” value [4] turn out when Cc1nn(-c2ccccc2)c(C)c1/C=N/N1CCN(Cc2ccccc2)CC1 [SANT-1] was run?
A: The value was “negative impact”.

Q: What about the “factor contribution, expression of NKX2-1” value ([4]; negative role, model optimized for maximum NKX2-1) of the same molecule?
A: Its value is 26.3.

Q: CC(=O)C(=O)[O-].[Na+] [Sodium Pyruvate] was tested. Which “impact on expression of Somatostatin” value [3] did it give?
A: Its value is “significant negative impact”.

Q: Which results are given for C/C(=C\c1ccc(C(=O)O)cc1)c1ccc2c(c1)C(C)(C)CCC2(C)C [TTNPB]?
A: impact on expression of NKX2-1 [4]: negative impact; factor contribution, important input for high expression of SIX3 ([5]; FIG. 2 legend): 23.7; impact on expression of OTX2 ([5]; dynamic profile / model, in words): negative impact; impact on expression of SIX3 ([5]; dynamic profile analysis, in words): negative impact; factor contribution, expression of SIX3 ([5]; negative effect, model optimized for maximal SIX3): 21; factor contribution, expression of OTX2 ([5]; negative impact, model optimized for maximum OTX2): 29 and 28.8; factor contribution, expression of FEZF2 ([5]; positive impact, model optimized for maximum FEZF2 at 3576): 24

Q: Which “impact on expression of Somatostatin” value [3] does the source give for COC(=O)CCC(=O)C(=O)OC [dm-αKG] here?
A: Its value is “significant negative impact”.

Q: What does the source list for (−)-Indolactam-V?
A: impact on expression of Somatostatin [1]: increase; also recorded: positive impact; factor contribution, expression of Somatostatin [1]: 5.2; contribution to the expression of SST [2]: positive contributions

B1: BDNF: brain-derived neurotrophic factor; BDNF pathway agonist (protein, UniProt P23560 129-247, looked up)
Neurotrophic factor BDNF: HSDPARRGELSVCDSISEWVTAADKKTAVDMSGGTVTVLEKVPVSKGQLKQYFYETKCNPMGYTKEGCRGIDKRHWNSQCRTTQSYVRALTMDSKKRIGWRFIRIDTSCVCTLTIKRGR
modifications: Neurotrophic factor BDNF
notes: brain-derived neurotrophic factor; BDNF pathway agonist
Q: For B1, which “impact on expression of Somatostatin” value [1] is on record?
A: Its value is “increase; also recorded: positive impact”.

Q: What about the “factor contribution, expression of Somatostatin” value [1] of the same molecule?
A: Its value is 8.1.

Q: What about the “impact on expression of Somatostatin” value ([6]; FIG. 24 dynamic profile, in words) of the same molecule?
A: The value was “significant effect; also recorded: positive effect; also recorded: positive impact”.

Q: What about the “factor contribution, expression of Somatostatin” value ([6]; positive, 8-factor experiment of FIG. 23) of the same molecule?
A: The value was 25.7.

Q: And the “contribution to the expression of SST” value [2]?
A: Its value is “positive contributions”.

Q: And the “effect on expression of Somatostatin” value ([2]; stage 5, experiment of FIG. 29, in words)?
A: Its value is “contribute to the maximal expression”.

Q: And the “effect on PVALB expression” value [2]?
A: The value was “not to PVALB expression”.

Q: What about the “effect on Somatostatin expression” value [2] of the same molecule?
A: The value was “contribute”.

Q: What about the “impact on expression of Somatostatin” value [3] of the same molecule?
A: Its value is “significant positive effect; also recorded: positive impact”.

Q: And the “factor contribution, expression of Somatostatin” value [3]?
A: Its value is 1.75 and 1.7.
